Legend:
FHC = assay: Neuronal FHC protein levels by Western blot in cultured cortical neurons; assay type: cell-based, rat
Description: Rat cortical neurons were cultured in the presence of a glial feeder layer, using the bilaminar cell culture model. Due to the presence of glia this culture system largely preserves the in vivo mechanisms of neuronal growth and differentiation, but also allows for direct studies on neurons, which were separated from glia at the time of analysis. Selected experiments were performed using glia-free neuronal cultures, as noted, using previously described protocols (Sengupta et al., 2009, J. Neurosci. 29:2534-2544). Neurons were transfected at the time of plating by Nucleofection (Amaxa), or after 8 days in culture by lipofectamine (Invitrogen). All experiments were conducted at 21 DIV, unless otherwise noted. HDAC4 and control (scrambled) siRNA were obtained from Ambion (s170677 and 4390843), and FHC/scrambled shRNA from GenScript (custom order; shRNA vector also expressed GFP).
Protease and phosphatases inhibitors were added to both buffers.
Rat cortical neurons were cultured in serum-free media in the presence of a glial feeder layer (Shimizu, et al., 2011, J. Vis. Exp. 57). This culture system largely preserves the in vivo environment, due to the presence of glia; however, it still enables direct investigation of neurons that can be separated by the glia before experiments. Selected studies were also performed in neurons grown in the absence of glia for the entire culture period, as indicated (Sengupta, et al., 2009, J. Neurosci. 29(8):2534-44). All experiments were conducted between 8-13 days in vitro (DIV).
Total protein extracts were obtained using standard protocols. […] The following antibodies were used: anti-FHC (3998, Cell Signaling Technology, 1:1,000) and anti-β-actin (A2066, Sigma-Aldrich, 1:5,000).

TNF-α = assay: ELISA of secreted TNF-α in neuronal/glial co-cultures; assay type: cell-based, rat; settings: 200 pM for 24 hours; vs controls
Description: (§1) TNF-α and IL-1β secreted protein levels were determined from co-culture supernatants using commercially available rat TNF-α and IL-1β kits (Quantikine, R&D Systems). The assays were performed following the manufacturer's instructions. Absorbance was read at 450 nm using Wallac Victor2 1420 Multilabel Counter (PerkinElmer). The concentration of secreted TNF-α and IL-1β are expressed as picograms per milliliter (pg/mL); values were normalized to total protein content for each well.

[1] = Attention set-shifting task after gp120 infusions; assay type: in vivo, rat; settings: SD rats, vs BSA
Description: Rats (200-400 g, male Sprague-Dawley, Taconic Farms) were stereotaxically implanted, under isoflurane anesthesia, with stainless-steel cannulas placed 0.96 mm posterior and 3.18 mm lateral to bregma, 3.47 mm below the surface of the cranium at an angle of 22°. Four stainless-steel screws (#0-80) were placed around the cannula and acrylic dental cement was used to anchor the cannula. Animals were allowed seven days to recover before receiving a bilateral infusion of 1 μl of gp120IIIB (50 ng/μl) once daily for seven days via a 10 microliter Hamilton Syringe, needle diameter 0.48 mm; infusion rate=0.374 microliters/minute. Animals were food restricted and began behavioral testing 21 days following the final infusion.
Animals were tested in an attention set-shifting task (Birrell & Brown, 2000, J. Neurosci. 20(11); 4320-4324). On day 1 of testing, food restricted rats are habituated to the testing chamber for 20 minutes. The testing chamber (17″×22″×10″ H) is divided lengthwise by a plexiglass wall with a guillotine-style door creating a waiting area (one-third of the chamber), and a testing area (remaining two-thirds of the chamber). The far wall of the testing area (furthest from the waiting area) is bisected by a plexiglass divider that extended 9.25 inches; thus creating two distinct yet easily accessible sides of the testing area. The following day, rats are trained to dig in terra cotta pots to obtain a food reward (Frosted Cheerio). The food reward is progressively buried deeper in the pots, filled with corn cob bedding, until the rat reliably digs to retrieve the food reward. On day 3, rats undergo exemplar training, discriminating between sensory cues to determine which pot contains the food reward. […] If the rat begins digging in the incorrect pot, the pots are removed from the testing area, the rat is placed back into the waiting area, and the trial is recorded as incorrect. […]

[2] = tested on: layer II/III pyramidal neurons of the prefrontal cortex; assay: In vivo dendritic spine analysis (Golgi stain, Neurolucida); set-up: species or system rat
IL-1β = assay: ELISA of secreted IL-1β in neuronal/glial co-cultures; assay type: cell-based, rat; settings: 200 pM for 24 hours; vs controls
Description: as §1

Substance: gp120IIIB: X4-using HIV-1 envelope protein gp120, from Immunodiagnostics
- neuronal expression of FHC (FHC; in the presence of glial feeder layer, 200 pM, up to 24 hr): able to increase neuronal expression of FHC
- neuronal FHC protein levels (FHC; pure neuronal cultures, 200 pM for 3, 6, or 24 hours): only transiently increased FHC
- secreted TNF-α levels in culture media (TNF-α): significantly higher
- attention set-shifting performance ([1]; testing 21 days after final infusion): impaired attention set-shifting performance
- extra-dimensional shifts [1]: impaired in extra-dimensional shifts
- reversal learning (Reversal 2, Reversal 3) [1]: impaired in the reversal learning component of the task
- average dendrite length ([2]; gp120-treated rats vs BSA): no changes in the average dendrite length
- number of branching points ([2]; gp120-treated rats vs BSA): reduced number of branching points
- spine density ([2]; gp120IIIB 50 ng/μl, 1 μl bilateral infusion once daily for seven days, vs BSA): reduction of spine density in layer II/III PFC neurons
- secreted IL-1β levels in culture media (IL-1β): significantly higher
